# PubChem BioAssay AID192 (DTP/NCI, 2004)
# Values joined by “and” are separate entries in the source; they are usually repeats but may differ in a detail not shown here. Identical values can stand only once. Toxic doses and inconclusive results are not listed.
# System: BDF1 mice, B16 melanoma ip, median survival T/C
# Assay: NCI In Vivo Anticancer Drug Screen. Data for tumor model B16 Melanoma (intraperitoneal) in B6D2F1 (BDF1) mice
# Conditions: endpoint: median survival time, higher = longer survival
# Method in brief: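 Antitumor activity is assessed in mice bearing a transplanted tumor, with survival or tumor size compared against vehicle-dosed controls and expressed as T/C.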
# [1] = dose: 100.0 mg/kg/injection, schedule: Q04DX003 (ip), vehicle: Klucel (hydroxypropylcellulose) (HPC)
# [2] = dose: 200.0 mg/kg/injection, schedule: Q04DX003 (ip), vehicle: Klucel (hydroxypropylcellulose) (HPC)
# [3] = dose: 400.0 mg/kg/injection, schedule: Q04DX003 (ip), vehicle: Klucel (hydroxypropylcellulose) (HPC)
# [4] = dose: 100.0 mg/kg/injection, schedule: Q01DX009 (ip), vehicle: Klucel (hydroxypropylcellulose) (HPC)
# [5] = dose: 200.0 mg/kg/injection, schedule: Q01DX009 (ip), vehicle: Klucel (hydroxypropylcellulose) (HPC)
# [6] = dose: 25.0 mg/kg/injection, schedule: Q01DX009 (ip), vehicle: saline with Tween-80
# [7] = dose: 50.0 mg/kg/injection, schedule: Q01DX009 (ip), vehicle: saline with Tween-80
# [8] = dose: 200.0 mg/kg/injection, schedule: Q01DX009 (ip), vehicle: saline with Tween-80
# [9] = dose: 3.12 mg/kg/injection, schedule: Q01DX009 (ip), vehicle: saline
# [10] = dose: 6.25 mg/kg/injection, schedule: Q01DX009 (ip), vehicle: saline
# [11] = dose: 100.0 mg/kg/injection, schedule: Q01DX009 (ip), vehicle: saline with Tween-80
# [12] = dose: 400.0 mg/kg/injection, schedule: Q01DX009 (ip), vehicle: saline with Tween-80
# [13] = dose: 400.0 mg/kg/injection, schedule: Q01DX009 (ip), vehicle: Klucel (hydroxypropylcellulose) (HPC)
# [14] = dose: 100.0 mg/kg/injection, schedule: Q04DX003 (ip), vehicle: saline with Tween-80
# [15] = dose: 200.0 mg/kg/injection, schedule: Q04DX003 (ip), vehicle: saline with Tween-80
# [16] = dose: 400.0 mg/kg/injection, schedule: Q04DX003 (ip), vehicle: saline with Tween-80
# [17] = dose: 12.5 mg/kg/injection, schedule: Q01DX009 (ip), vehicle: saline
# [18] = dose: 25.0 mg/kg/injection, schedule: Q01DX009 (ip), vehicle: saline
# [19] = dose: 50.0 mg/kg/injection, schedule: Q01DX009 (ip), vehicle: saline
# [20] = dose: 100.0 mg/kg/injection, schedule: Q01DX009 (ip), vehicle: saline
# [21] = dose: 0.5 mg/kg/injection, schedule: Q01DX009 (ip), vehicle: saline
# [22] = dose: 6.25 mg/kg/injection, schedule: Q01DX009 (ip), vehicle: saline with Tween-80
# [23] = dose: 12.5 mg/kg/injection, schedule: Q01DX009 (ip), vehicle: saline with Tween-80
smiles,measurement,setting,value
O=C1C(NCCO)=C(N2CC2)C(=O)C(NCCO)=C1N1CC1,T/C,"dose: 0.19 mg/kg/injection, schedule: Q01DX009 (ip), vehicle: saline",165 % of control and 202 % of control
same,T/C,"dose: 0.37 mg/kg/injection, schedule: Q01DX009 (ip), vehicle: saline",161 % of control
same,T/C,"dose: 0.38 mg/kg/injection, schedule: Q01DX009 (ip), vehicle: saline",191 % of control and 236 % of control
same,T/C,"dose: 0.75 mg/kg/injection, schedule: Q01DX009 (ip), vehicle: saline",221 % of control
Cc1noc(/N=C/c2ccccc2)c1C,T/C,[1],108 % of control
same,T/C,[2],105 % of control
same,T/C,[3],108 % of control
CCCC(C#N)(c1ccccc1)c1ccccc1,T/C,"dose: 50.0 mg/kg/injection, schedule: Q01DX009 (ip), vehicle: Klucel (hydroxypropylcellulose) (HPC)",90 % of control
same,T/C,[4],90 % of control
same,T/C,[5],93 % of control
CC(=O)Nc1ccn(C2OC(CO)C(O)C2O)c(=O)n1 (stereo unspecified),T/C,[6],88 % of control
same,T/C,[7],97 % of control
same,T/C,[8],92 % of control
CCN(CC)[P+](c1ccccc1O)(N(CC)CC)N(CC)CC,T/C,"dose: 1.56 mg/kg/injection, schedule: Q01DX009 (ip), vehicle: saline",100 % of control
same,T/C,[9],105 % of control
same,T/C,[10],107 % of control and 114 % of control
CC(=O)Nc1cc(N(CCOS(C)(=O)=O)CCOS(C)(=O)=O)ccc1N=O,T/C,"dose: 75.0 micrograms/kg/injection, schedule: Q04DX003 (ip), vehicle: saline",111 % of control
same,T/C,"dose: 100.0 micrograms/kg/injection, schedule: Q01DX009 (ip), vehicle: saline",121 % of control
same,T/C,"dose: 150.0 micrograms/kg/injection, schedule: Q04DX003 (ip), vehicle: saline",110 % of control
same,T/C,"dose: 300.0 micrograms/kg/injection, schedule: Q04DX003 (ip), vehicle: saline",109 % of control
COc1ccc(OC(=O)Nc2ccccc2Cl)cc1,T/C,[1],106 % of control
same,T/C,[2],103 % of control
same,T/C,[3],103 % of control
CC(=O)ON(C(C)=O)c1ccc(C(N)=O)cc1,T/C,[6],91 % of control
same,T/C,[7],89 % of control
same,T/C,[11],86 % of control
same,T/C,[8],88 % of control
same,T/C,[12],94 % of control
O=C1C(CCSc2ccccc2)C(=O)N(c2ccccc2)C1c1ccccc1 (stereo unspecified),T/C,[4],116 % of control
same,T/C,[5],113 % of control
same,T/C,[13],110 % of control
CC(C)C(O)(C(=O)NN)C(=O)NN,T/C,"dose: 50.0 mg/kg/injection, schedule: Q04DX003 (ip), vehicle: saline",91 % of control
same,T/C,"dose: 100.0 mg/kg/injection, schedule: Q04DX003 (ip), vehicle: saline",96 % of control
same,T/C,"dose: 200.0 mg/kg/injection, schedule: Q04DX003 (ip), vehicle: saline",117 % of control
C[CH2][Sn]([F])([CH2]C)[CH2]C,T/C,"dose: 0.37 mg/kg/injection, schedule: Q01DX009 (ip), vehicle: saline with Tween-80",104 % of control
same,T/C,"dose: 0.75 mg/kg/injection, schedule: Q01DX009 (ip), vehicle: saline with Tween-80",109 % of control
same,T/C,"dose: 1.5 mg/kg/injection, schedule: Q01DX009 (ip), vehicle: saline with Tween-80",102 % of control
same,T/C,"dose: 3.0 mg/kg/injection, schedule: Q01DX009 (ip), vehicle: saline with Tween-80",94 % of control
Cc1ccc(C)c(NC(=O)c2ccc(Cl)cc2Cl)c1,T/C,[14],100 % of control
same,T/C,[15],94 % of control
same,T/C,[16],88 % of control
C=C(NC(=O)C(=C)NC(=O)c1csc(C2=NC3c4csc(n4)C4NC(=O)c5csc(n5)C(C(C)(O)C(C)O)NC(=O)C5CSC(=N5)/C(=C/C)NC(=O)C(C(C)O)NC(=O)c5csc(n5)C3(CC2)NC(=O)C(C)NC(=O)C(=C)NC(=O)C(=C)NC(=O)C(C(C)C)NC2C=Cc3c(C(C)O)cc(nc3C2O)C(=O)OC4C)n1)C(N)=O (stereo unspecified),T/C,[9],114 % of control
same,T/C,[10],104 % of control and 117 % of control
same,T/C,[17],109 % of control and 114 % of control
same,T/C,[18],110 % of control and 120 % of control
same,T/C,[19],119 % of control and 120 % of control
same,T/C,[20],123 % of control
O=c1oc2c3ccccc3c3ccccc3c2o1,T/C,"dose: 1.56 mg/kg/injection, schedule: Q01DX009 (ip), vehicle: Klucel (hydroxypropylcellulose) (HPC)",100 % of control
same,T/C,"dose: 3.12 mg/kg/injection, schedule: Q01DX009 (ip), vehicle: Klucel (hydroxypropylcellulose) (HPC)",96 % of control
same,T/C,"dose: 6.25 mg/kg/injection, schedule: Q01DX009 (ip), vehicle: Klucel (hydroxypropylcellulose) (HPC)",113 % of control
same,T/C,"dose: 12.5 mg/kg/injection, schedule: Q01DX009 (ip), vehicle: Klucel (hydroxypropylcellulose) (HPC)",106 % of control
same,T/C,"dose: 25.0 mg/kg/injection, schedule: Q01DX009 (ip), vehicle: Klucel (hydroxypropylcellulose) (HPC)",86 % of control and 96 % of control
CN1C(=O)OC(C)(C)C1=O,T/C,"dose: 0.78 mg/kg/injection, schedule: Q04DX003 (ip), vehicle: saline",95 % of control
same,T/C,"dose: 1.56 mg/kg/injection, schedule: Q04DX003 (ip), vehicle: saline",100 % of control
same,T/C,"dose: 3.12 mg/kg/injection, schedule: Q04DX003 (ip), vehicle: saline",105 % of control
same,T/C,"dose: 6.25 mg/kg/injection, schedule: Q04DX003 (ip), vehicle: saline",105 % of control
same,T/C,"dose: 12.5 mg/kg/injection, schedule: Q04DX003 (ip), vehicle: saline",100 % of control
same,T/C,[18],110 % of control
same,T/C,[19],100 % of control
same,T/C,[20],100 % of control
same,T/C,"dose: 200.0 mg/kg/injection, schedule: Q01DX009 (ip), vehicle: saline",97 % of control
same,T/C,"dose: 400.0 mg/kg/injection, schedule: Q01DX009 (ip), vehicle: saline",94 % of control
CC(=O)CC(=O)Nc1cccc(O)c1,T/C,[4],92 % of control
same,T/C,[5],92 % of control
same,T/C,[13],86 % of control
CC(=O)CC(=O)Nc1ncccc1C,T/C,"dose: 25.0 mg/kg/injection, schedule: Q01DX009 (ip), vehicle: carboxymethylcellulose (CMC)",111 % of control
same,T/C,"dose: 50.0 mg/kg/injection, schedule: Q01DX009 (ip), vehicle: carboxymethylcellulose (CMC)",106 % of control
same,T/C,"dose: 100.0 mg/kg/injection, schedule: Q01DX009 (ip), vehicle: carboxymethylcellulose (CMC)",107 % of control
O=C1C(N2CCN(CCO)CC2)=C(N2CC2)C(=O)C(N2CCN(CCO)CC2)=C1N1CC1,T/C,"dose: 0.25 mg/kg/injection, schedule: Q01DX009 (ip), vehicle: saline",122 % of control
same,T/C,[21],122 % of control
same,T/C,"dose: 1.0 mg/kg/injection, schedule: Q01DX009 (ip), vehicle: saline",109 % of control
CCOC(=O)C1=C(C)O/C(=C/c2cccc(Cl)c2)C1=O,T/C,[22],110 % of control
same,T/C,[23],113 % of control
same,T/C,[6],113 % of control
same,T/C,[7],86 % of control and 107 % of control
same,T/C,[11],97 % of control
CCOC1=C(N2CC2)C(=O)C(OCC)=C(N2CC2)C1=O,T/C,[21],105 % of control
same,T/C,"dose: 2.0 mg/kg/injection, schedule: Q01DX009 (ip), vehicle: saline",121 % of control
CC(=O)O[C@@]1(C)[C@@H](C)C(=O)O[C@@H]2CCN3CC=C(COC(=O)[C@]1(C)O)[C@H]23,T/C,[17],119 % of control
same,T/C,[19],119 % of control
same,T/C,[20],97 % of control
N#CC(=C1C=CC(=NO)C=C1)c1ccc(Cl)cc1,T/C,[22],88 % of control
same,T/C,[23],95 % of control
same,T/C,[6],87 % of control
same,T/C,[7],86 % of control
O=C(/C=C\c1ccccc1)/C=C/c1ccccc1,T/C,[11],104 % of control
same,T/C,[14],102 % of control
same,T/C,[8],96 % of control
same,T/C,[15],100 % of control
same,T/C,[12],92 % of control
same,T/C,[16],102 % of control
